In paper PMC12040169 (PLOS Biology, 2025):

How the values were obtained:
[1] = system: T1, C. trachomatis L2/434/Bu expressing GFP (CTL2-GFP); assay: microbe, parasite or virus in culture; set-up: C. trachomatis total inclusion area by high-content imaging, normalised to DMSO; conditions: Chlamydia trachomatis, HeLa, 28.5 h; total inclusion area; read-out: % of control remaining
T1 construct: L2/434/Bu GFP intracellular growth in HeLa cells
Outline: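 After bulk GFP and resorufin reads, fixed cells were Hoechst-stained and imaged to count chlamydial inclusions and host nuclei. Total inclusion area and number tracked bacterial growth, and nuclei number tracked host viability. MICs were derived, and 36,785 drug-like molecules were screened this way.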

in vitro = assay: in vitro; set-up: Viability of infected HeLa host cells, resazurin conversion, bulk resorufin fluorescence relative to DMSO; conditions: human, hela cells; bulk resorufin, mean of 2
[2] = system: T2, CTL2-GFP (C. trachomatis L2/434/Bu, GFP-expressing); assay: microbe, parasite or virus in culture; set-up: Intracellular C. trachomatis growth in HeLa cells, bulk GFP fluorescence relative to DMSO; conditions: Chlamydia trachomatis, HeLa, 28.5 h; bulk GFP, mean of 2; read-out: % of control remaining
T2 construct: L2/434/Bu, GFP-expressing
Description: MICs were calculated as described above.

| Compound | activity at 1 µM [1] | activity at 5 µM [1] | activity at 10 µM [1] | viability at 28.5 h, 1 µM (in vitro) | viability at 28.5 h, 5 µM (in vitro) | viability at 28.5 h, 10 µM (in vitro) | activity at 1 µM [2] | activity at 5 µM [2] | activity at 10 µM [2] |
| --- | --- | --- | --- | --- | --- | --- | --- | --- | --- |
| CN(C)CCNc1nc(-c2ccc(Cl)cc2)nc2ccccc12 [CBK263942] | 64.3% | 38.6% | 5.67% | 94.8% | 97% | 94.4% | 111% | 85.1% | 47.9% |
| Cc1noc(NS(=O)(=O)c2ccc(NC(=O)CCN3C(=O)c4ccccc4C3=O)cc2)c1C [CBK264091] | 99.8% | 67.5% | 32.7% | 92.8% | 92.8% | 91.3% | 106% | 40.3% | 28.9% |
| O=C(NCc1cccnc1)/C(=C/c1ccc(-c2cccc(Cl)c2)o1)S(=O)(=O)c1ccccc1 [CBK264508] | 78.5% | 44% | 10.3% | 107% | 100% | 97.8% | 101% | 45% | 8.14% |
| CC(C)(C)CC(C)(C)NC(=S)Nc1ccc2nc(-c3ccccn3)c(-c3ccccn3)nc2c1 [CBK265118] | 82.1% | 31.9% | 16.8% | 110% | 106% | 98% | 95.9% | 66.8% | 47.2% |
| Cc1noc(NS(=O)(=O)c2ccc(NC(=O)/C=C/c3ccc(C(C)C)cc3)cc2)c1C [CBK265430] | 69.9% | 23.1% | 22.2% | 108% | 102% | 106% | 66.5% | 26.3% | 11.6% |
| O=C(NCCCn1ccnc1)c1cc(-c2cccc(Br)c2)nc2ccccc12 [CBK265476] | 76.4% | 28.5% | 3.75% | 108% | 115% | 116% | 88.9% | 13% | 0% |
| Cn1cc(C(c2ccc(OCC(=O)O)cc2)c2cn(C)c3ccccc23)c2ccccc21 [CBK266403] | 87.5% | 36% | 2.98% | 113% | 111% | 115% | 91% | 23.4% | 9.15% |
| COc1ccc(S(=O)(=O)Nc2ccc(S(=O)(=O)Nc3nccs3)cc2)c([N+](=O)[O-])c1 [CBK266801] | 26.3% | 5.01% | 1.27% | 110% | 123% | 119% | 13.9% | 4.96% | 0% |
| O=S(=O)(Nc1ncccn1)c1ccc(NC(=S)Nc2ccc3c(c2)OCO3)cc1 [CBK267046] | 88.8% | 21.2% | 18.3% | 114% | 121% | 119% | 54.3% | 10.7% | 12.9% |
| N=C(N)Nc1nc(-c2ccccc2)c2cc(F)ccc2n1 [CBK267350] | 90.4% | 64.6% | 12.8% | 107% | 111% | 105% | 93.6% | 64.3% | 16.8% |
| Cc1ccc(S(=O)(=O)Nc2ccc(S(=O)(=O)Nc3nccs3)cc2)c([N+](=O)[O-])c1 [CBK267410] | 23% | 5.7% | 1.86% | 110% | 97.6% | 98.2% | 17.1% | 7.21% | 1.76% |
| Cc1cc(C)c2nc(-c3ccccn3)cc(C(=O)Nc3ccc(S(=O)(=O)Nc4onc(C)c4C)cc3)c2c1 [CBK267775] | 115% | 111% | 74.8% | 100% | 94.8% | 98.6% | 95.8% | 105% | 66.8% |
| O=[N+]([O-])c1cc2c(cc1C(Nc1ccccn1)c1cc(Cl)c3cccnc3c1O)OCO2 (stereo not drawn) [CBK267795] | 94.3% | 40.8% | 25.9% | 95.1% | 98.7% | 93.2% | 109% | 82.9% | 79.7% |
| Oc1c(CN2CCN(c3ccc(F)cc3)CC2)cc(Br)c2cccnc12 [CBK268051] | 119% | 33% | 37.5% | 96.2% | 97.9% | 92.4% | 113% | 46.4% | 37.8% |
| CN(C)c1ccc(Nc2nc(NCCO)c3ccccc3n2)cc1 [CBK268392C] | 69.7% | 4.24% | 0.899% | 95.3% | 103% | 100% | 130% | 4.94% | 6.78% |
| Oc1ccccc1Nc1nc(NC2CCCC2)c2ccccc2n1 [CBK268402C] | 43.4% | 23.2% | 4.48% | 90.7% | 94.1% | 104% | 120% | 45.9% | 9.92% |
| O=[N+]([O-])c1cccc(C(Nc2cccnc2)c2cc(Cl)c3cccnc3c2O)c1 (stereo not drawn) [CBK268629] | 104% | 93.6% | 47.5% | 93.9% | 88.9% | 91.6% | 102% | 82% | 56.2% |
| O=C1Oc2nc3ccccc3cc2CN1C1CC1 [CBK282870] | 0.264% | 0.496% | 0.404% | 112% | 112% | 98.4% | 0.777% | 1.12% | 3.61% |
| O=C(c1cccs1)N1C[C@H](c2ccc(F)cc2)[C@H]2CN(Cc3ccccc3)CC[C@H]21 [CBK285544] | 74.8% | 78.2% | 59.8% | 93.4% | 91.7% | 95.5% | 93.9% | 109% | 115% |
